Experiments:
platelet aggregation = assay: inhibition of platelet aggregation, hamster; format: cell-based; settings: Mesocricetus auratus, read-out: concentration (IC50) necessary for inhibition of platelet aggregation
Experimental: The platelets aggregation was measured by the Born's method (G. V. R. Born, Nature 194, 927 (1962)). Blood was collected through an injector containing a 3.8% sodium citrate solution from the aorta abdominalis (final concentration: 0.38%). Centrifugation was carried out at 900 rpm (about 80× g) for 10 min to collect platelet-rich plasma, and centrifugation was further carried out at 3,000 rpm (about 880× g) for 10 min to collect platelet-poor plasma, followed by the measurement of aggregation with an aggregometer. In this case, ADP (final concentration: 5 μM) was used as an aggregation inducer.

[1] = test system: rat vascular smooth muscle cells; assay: adhesion of rat vascular smooth muscle cells to rat vitronectin; format: cell-based; settings: read-out: concentration (IC50) necessary for inhibition of adhesion to vitronectin
Experimental: The adhesion of vascular smooth muscle cells to immobilized human vitronectin was measured in accordance with the method of Liaw et al. (L. Liaw et al., Circ. Res., 74, 214 (1994)). A Dulbecco's phosphate buffer (Dulbecco's PBS(−)) solution of human serum-derived vitronectin adjusted to a concentration of 4 μg/ml was first added to wells (50 μl/well) of a microplate (Maxisorp), and a reaction for immobilization was allowed to proceed at 4° C. overnight. After washing twice with 150 μl of Dulbecco's PBS (−), Dulbecco's PBS (−) containing 10 mg/ml of bovine serum albumin was added, followed by blocking at 37° C. for one hr. The microplate was then washed twice with 150 μl of Dulbecco's PBS (−) to prepare an assay plate.
Next, 50 μl of a Dulbecco's modified Eagle's basal medium containing 20 mg/ml of bovine serum albumin with a medicament added thereto was added to the wells of the human vitronectin-coated assay microplate, followed by pre-cultivation under 5% carbon dioxide at 37° C. for 10 min. Thereafter, 50 μl of the Dulbecco's modified Eagle's basal medium with human vascular smooth muscle cells suspended therein was added thereto, and the plate was thoroughly stirred. A reaction was allowed to proceed under 5% carbon dioxide at 37° C. for 90 min. The reaction solution containing non-adherent cells was then removed, followed by washing three times with Dulbecco's PBS (−). For the adhered cells, 100 μl of Dulbecco's PBS (−) containing 4% paraformaldehyde was added, and immobilization was allowed to proceed at room temperature for 10 min. Next, 100 μl of a Dulbecco's PBS (−) containing 0.5% Toluidine Blue and 4% paraformaldehyde was added, and staining was allowed to proceed at room temperature for 5 min, followed by thorough washing with distilled water. The inside of the wells was then air-dried, and 1% aqueous sodium dodecylsulfate solution was then added to perform cytolysis. The absorbance of the microplate thus obtained was measured at 595 nm. […] The inhibition was calculated by the following equation. IC50 was determined from a primary regression line of the logarithm of each concentration of the test compound and the logarithm of (100−inhibition)/inhibition. [formula]
Rat vascular smooth muscle cells were cultivated in a medium composed of a mixture of equal amounts of 15% fetal calf serum-containing 199 medium and RPMI 1640 medium. Separately, hamster and dog vascular smooth muscle cells were cultivated in a 10% fetal calf serum-containing Dulbecco's modified Eagle's basal medium. These cultivated cells were then suspended in a Dulbecco's modified Eagle's basal medium to concentrations of 3×10^5 cells/ml (rat), 3×10^5 cells/ml (hamster), and 4×10^5 cells /ml (dog), respectively. Rat vitronectin was used in the adhesion system of rats and hamsters, while bovine vitronectin was used in the adhesion system of dogs.

[2] = test system: rat acute myocardial ischemia-reperfusion model; assay: rat acute myocardial ischemia-reperfusion model; format: in vivo; settings: for myocardial infarct size (proportion of the infarct area in the left ventricle): average value±SE, n=5
Experimental: Male Wistar rats (330 to 420 g) were subjected to controlled respiration using an artificial respirator under pentobarbital anesthesia (60 mg/kg, i.p.), and the blood pressure and the heart rate were measured through a blood pressure amplifier and a heart rate unit. Further, for the ischemia of the myocardium, an increase in voltage of R-wave in the II leading in an electrocardiogram was confirmed with a monitor through a bioelectricity amplifier. The rats underwent thoracotomy, and the coronary artery, together with the myocardium, was then occluded using a suture with a needle. Ischemia for 3 min and reperfusion for 5 min were followed by ischemia for 45 min and reperfusion for 45 min. Medicaments tested and concentrations thereof were 3 mg/kg+3 mg/kg/hr (bolus +infusion) (L; low dose group) and 6 mg/kg+3 mg/kg/hr (bolus +infusion) (H; high dose group) for the compound represented by formula (V); 3 mg/kg+3 mg/kg/hr (bolus +infusion) for the compound represented by formula (VI); 3 mg/kg+3 mg/kg/hr (bolus +infusion) (L; low dose group) and 6 mg/kg+3 mg/kg/hr (bolus +infusion) (H; high dose group) for the compound represented by formula (IV); 5 mg/kg+5 mg/kg/hr(bolus +infusion)(L; low dose group) and 10 mg/kg+10 mg/kg/hr (bolus +infusion) (H; high dose group) for the compound represented by formula (VII); and 1 mg/kg+1 mg/kg/hr (bolus+infusion) (L; low dose group) and 6 mg/kg+6 mg/kg/hr (bolus+infusion) (H; high dose group) for the compound represented by formula (VIII). For a control group (group C), a 10% (v/v) dimethyl sulfoxide/5% glucose solution was administered, and each medicament was dissolved in the same solvent. The dose volume was 3 ml/kg+3 ml/kg/h (bolus+infusion). The medicament was continuously administered through an infusion pump for the period starting with one min before the ischemia and ending with the completion of the experiment. After reperfusion for 45 min, the rats were slaughtered by excessive administration of pentobarbital, and the heart was removed. After perfusion with a Ringer solution, perfusion staining was carried out with 1.5% triphenyltetrazolium chloride, and the proportion of the infarct area in the left ventricle was quantitatively determined. For animals used in the experiment, each group consisted of 5 rats.

[3] = 3 mg/kg+3 mg/kg/hr (bolus+infusion)
[4] = 6 mg/kg+3 mg/kg/hr (bolus+infusion), group H

O=C(NCC(NS(=O)(=O)c1ccccc1)C(=O)O)c1ccc(N2CCC(NC3=NCCCN3)CC2)c(F)c1 (stereo in doubt) [formula (IV), (2S)-Benzenesulfonylamino-3-[3-fluoro-4-{4-(1,4,5,6-tetrahydropyrimidin-2-ylamino)-piperidin-1-yl}benzoylamino]propionic Acid]
IC50 (platelet aggregation): 1.9 µM | IC50 [1]: 0.23 µM | reduction of myocardial infarct size as compared with group C [2, 3]: 17.8% | myocardial infarct size (proportion of the infarct area in the left ventricle) [2, 3]: 32.3±4.9% | reduction of myocardial infarct size as compared with group C [2, 4]: 35.1% | myocardial infarct size (proportion of the infarct area in the left ventricle) [2, 4]: 25.5±1.5% | influence on the blood pressure and the heart rate ([2]; doses at which the infarct inhibition action could be obtained): no influence

Source: patent US20030040531A1, “Remedies for reperfusion injury containing integrin alphanubeta 3 antagonist” (priority 2000, published 2003)
